# Entries after “also recorded” stand apart in the source; their conditions may differ.
# What was measured:
# water solubility = format: physicochemical; details: at room temperature
# Source text: A staurosporin derivative that is sparingly soluble in water is disclosed, for example, in U.S. Pat. No. 5,093,330 and is derived from staurosporin by additional substitution of the free hydrogen atom at the nitrogen of the N-methylamino substituent. Poor solubility in water is a characteristic property of staurosporin derivatives, which renders them unsuitable for intravenous dosage forms.
# [1] = cited from earlier work
SMILES,solubility (water solubility) [µg/mL],water solubility (in words) [1]
CO[C@@H]1[C@H](N(C)C(=O)c2ccccc2)C[C@H]2O[C@]1(C)n1c3ccccc3c3c4c(c5c6ccccc6n2c5c31)C(=O)NC4 [N-benzoyl-staurosporin],< 0.1,
CN[C@@H]1C[C@H]2O[C@@](C)([C@@H]1OC)n1c3ccccc3c3c4c(c5c6ccccc6n2c5c31)C(=O)NC4 [staurosporin],,particularly poor water solubility; also recorded: extremely low water solubility

# From patent US5726164A, “Nanosuspensions for intravenous administration” (Novartis Corporation, priority 1995, dated 1998)
